# pIC50: −log10 of the molar value.
# Biological target: T1, PRMT6 (Homo sapiens, UniProt Q96LA8)
# T1 construct: Flag-PRMT6-His; made in house; host or cells: HEK 293F cells (BacMam virus)
# Assay: PRMT6 Biochemical Assay (3H-SAM Flashplate, peptide substrate)
# Details: 30 min preincubation, room temperature
# Excerpt: S-adenosylmethionine (SAM), S-adenosylhomocysteine (SAH), bicine, Tween20, dimethylsulfoxide (DMSO), bovine skin gelatin (BSG), sodium butyrate and Tris(2-carboxyethyl)phosphine hydrochloride solution (TCEP) were purchased from Sigma-Aldrich at the highest level of purity possible. ^3H-SAM was purchase from American Radiolabeled Chemicals with a specific activity of 80 Ci/mmol. 384-well streptavidin Flashplates were purchased from PerkinElmer.
# Peptide representative of human histone H4 residues 36-50 was synthesized with an N-terminal linker-affinity tag motif and a C-terminal amide cap by 21st Century Biochemicals. The peptide was purified by high-performance liquid chromatography (HPLC) to greater than 95% purity and confirmed by liquid chromatography mass spectrometry (LC-MS). The sequence was Biot-Ahx-[…]-amide and contained a monomethylated lysine at position 44 (SEQ ID NO.:5).
# Full-length human PRMT6 (NM_018137.2) transcript clone was amplified from an HEK 293 cDNA library, incorporating a flanking 5′ sequence encoding a FLAG tag ([…]) (SEQ ID NO.:6) fused directly to Ser 2 of PRMT6 and a 3′ sequence encoding a hexa His sequence (HHHHHH) fused directly to Asp 375. The amplified gene was subcloned into pFastBacMam (Viva Biotech).
# Recombinant baculovirus were generated according to Bac-to-Bac kit instructions (Life Technologies). […] Infections were carried out at 37° C. for 48 hours, harvested by centrifugation, and stored at −80° C. for purification.
# Column was washed with 20 mM imidazole in the same buffer and Flag-PRMT6-His was eluted with 150 mM imidazole. Pooled fractions were dialysed against buffer Ni-A and further purified by anti-flag M2 affinity chromatography. Flag-PRMT6-His was eluted with 200 ug/ml FLAG peptide in the same buffer. Pooled fractions were dialysed in 20 mM Tris, 150 mM NaCl, 10% glycerol and 5 mM β-mercaptoethanol, pH 7.8. The purity of recovered protein was 95%.
# General Procedure for PRMT6 Enzyme Assays on Peptide Substrates.
# The assays were all performed in a buffer consisting of 20 mM Bicine (pH=7.6), 1 mM TCEP, 0.005% BSG, and 0.002% Tween 20, prepared on the day of use. Compounds in 100% DMSO (1 ul) were spotted into a polypropylene 384-well V-bottom plates (Greiner) using a Platemate Plus outfitted with a 384-channel head (Thermo Scientific). DMSO (1 ul) was added to Columns 11, 12, 23, 24, rows A-H for the maximum signal control and 1 ul of SAH, a known product and inhibitor of PRMT6, was added to columns 11, 12, 23, 24, rows I-P for the minimum signal control. A cocktail (40 ul) containing the PRMT6 enzyme was added by Multidrop Combi (Thermo-Fisher). The compounds were allowed to incubate with PRMT6 for 30 min at room temperature, then a cocktail (10 ul) containing SAM and peptide was added to initiate the reaction (final volume=51 ul). The final concentrations of the components were as follows: PRMT6 was 1 nM, ^3H-SAM was 200 nM, non-radiolabeled SAM was 250 nM, peptide was 75 nM, SAH in the minimum signal control wells was 1 mM, and the DMSO concentration was 2%. The assays were stopped by the addition of non-radiolabeled SAM (10 ul) to a final concentration of 400 uM, which dilutes the ^3H-SAM to a level where its incorporation into the peptide substrate is no longer detectable. 50 ul of the reaction in the 384-well polypropylene plate was then transferred to a 384-well Flashplate and the biotinylated peptides were allowed to bind to the streptavidin surface for at least 1 hour before being washed once with 0.1% Tween20 in a Biotek ELx405 plate washer. The plates were then read in a PerkinElmer TopCount plate reader to measure the quantity of ^3H-labeled peptide bound to the Flashplate surface, measured as disintegrations per minute (dpm) or alternatively, referred to as counts per minute (cpm).
# Where dpm=disintegrations per minute, cmpd=signal in assay well, and min and max are the respective minimum and maximum signal controls. […]
# T1 sequence (Q96LA8 with tags, fused parts or gaps): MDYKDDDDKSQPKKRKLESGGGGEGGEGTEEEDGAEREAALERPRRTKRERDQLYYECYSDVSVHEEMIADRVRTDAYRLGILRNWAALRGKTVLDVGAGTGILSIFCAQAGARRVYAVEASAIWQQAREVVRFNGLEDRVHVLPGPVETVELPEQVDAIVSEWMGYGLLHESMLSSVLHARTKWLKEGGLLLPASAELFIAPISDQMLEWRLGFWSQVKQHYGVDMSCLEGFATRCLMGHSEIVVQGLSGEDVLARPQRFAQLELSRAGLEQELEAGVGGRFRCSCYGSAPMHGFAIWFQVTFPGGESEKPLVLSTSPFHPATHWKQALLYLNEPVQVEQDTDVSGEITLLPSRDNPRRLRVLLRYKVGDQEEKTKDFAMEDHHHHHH
row,pIC50,SMILES
1,≥ 7.00,CN(CCN)Cc1c[nH]nc1-c1ccsc1 [Compound 3]
2,6.00 to 7.00,CN(CCN)Cc1c[nH]nc1-c1cncnc1 [Compound 4]
3,6.00 to 7.00,CN(CCN)Cc1c[nH]nc1-c1cccs1 [Compound 5]
4,6.00 to 7.00,CN(CCN)Cc1c[nH]nc1-c1ccco1 [Compound 6]
5,6.00 to 7.00,CN(CCN)Cc1c[nH]nc1-c1ccoc1 [Compound 7]
6,≥ 7.00,CN(CCN)Cc1c[nH]nc1-c1cnn(C)c1 [Compound 8]
7,≥ 7.00,CN(CCN)Cc1c[nH]nc1-c1ccc2scnc2c1 [Compound 9]
8,≤ 5.00,Cc1noc(C)c1-c1n[nH]cc1CN(C)CCN [Compound 10]
9,6.00 to 7.00,COc1ncc(-c2n[nH]cc2CN(C)CCN)cn1 [Compound 11]
10,6.00 to 7.00,CN(CCN)Cc1c[nH]nc1-c1cn[nH]c1 [Compound 12]
11,≥ 7.00,CN(CCN)Cc1c[nH]nc1-c1cnc2[nH]ccc2c1 [Compound 13]
12,5.52 to 6.00,CN(CCN)Cc1c[nH]nc1-c1cc[nH]n1 [Compound 14]
13,5.52 to 6.00,CN(CCN)Cc1c[nH]nc1-c1ccnn1C [Compound 15]
14,≥ 7.00,CCn1cc(-c2n[nH]cc2CN(C)CCN)cn1 [Compound 16]
15,≥ 7.00,CN(CCN)Cc1c[nH]nc1-c1cnn(-c2ccccc2)c1 [Compound 17]
16,≥ 7.00,CN(CCN)Cc1c[nH]nc1-c1cnn(CCO)c1 [Compound 18]
17,≥ 7.00,"CN(CCN)Cc1c[nH]nc1-c1ccc2cnn(C)c2c1 [Compound 19, N^1-methyl-N^1-((3-(1-methyl-1H-indazol-6-yl)-1H-pyrazol-4-yl)methyl)ethane-1,2-diamine]"
18,≥ 7.00,CN(CCN)Cc1c[nH]nc1-c1ccc2ncnn2c1 [Compound 20]
19,≥ 7.00,"CN(CCN)Cc1c[nH]nc1-c1ccc2nccn2c1 [Compound 21, N^1-((3-(imidazo[1,2-a]pyridin-6-yl)-1H-pyrazol-4-yl)methyl)-N^1-methylethane-1,2-diamine]"
20,≥ 7.00,CC(C)n1cc(-c2n[nH]cc2CN(C)CCN)cn1 [Compound 22]
21,≥ 7.00,"CC(C)Cn1cc(-c2n[nH]cc2CN(C)CCN)cn1 [Compound 23, N^1-((2′-isobutyl-3,4′-bi(1H-pyrazol)-4-yl)methyl)-N^1-methylethane-1,2-diamine]"
22,≥ 7.00,"CN(CCN)Cc1c[nH]nc1-c1cnn(Cc2ccccc2)c1 [Compound 24, N^1-((1′-benzyl-3,4′-bi(1H-pyrazol)-4-yl)methyl)-N^1-methylethane-1,2-diamine]"
23,≤ 5.00,Cc1n[nH]c(C)c1-c1n[nH]cc1CN(C)CCN [Compound 25]
24,≥ 7.00,"CN(CCN)Cc1c[nH]nc1-c1ccc2[nH]ncc2c1 [Compound 27, N^1-((3-(1H-indazol-5-yl)-1H-pyrazol-4-yl)methyl)-N^1-methylethane-1,2-diamine]"
25,6.00 to 7.00,CN(CCN)Cc1c[nH]nc1-c1cnc(C2CC2)nc1 [Compound 28]
26,5.52 to 6.00,CN(CCN)Cc1c[nH]nc1-c1ccc[nH]1 [Compound 29]
27,≥ 7.00,CN(CCN)Cc1c[nH]nc1-c1cccc2[nH]ncc12 [Compound 30]
